Experimental data as given in patent US8846694B2, “Pyrrolidone derivatives for use as MetAP-2 inhibitors” (Merck Patent GmbH, priority 2008, dated 2014).
Counter-ions that a name gives are not always drawn.

Biological target: MetAP-2 (Homo sapiens, UniProt P50579)
Assay: MetAP-2 activity measurement (coupled enzymatic reactions, substrate Met-Arg-Ser, photometric at 450 nm)
Assay type: biochemical
Conditions: read-out: IC50 enzyme (Inhibition of MetAP-2)
Protocol: MetAP-2 Activity Measurement
The MetAP-2 activity is determined by coupling enzymatic reactions. The tripeptide Met-Arg-Ser (MAS) is employed as substrate. The methionine liberated is firstly converted into Metox and H2O2 by L-aminooxidase (AAO). In the second step, the peroxidase (POD) with the aid of the H2O2 catalyses the oxidation of the leukodye dianisidine to dianisidineox, the increase of which is detected photometrically at 450 nm.
MetAP-2 activity can be recorded continuously as kinetics. The reaction scheme illustrates that one mol of dianisidineox is formed per mol of methionene. The MetAP-2 enzyme activity can therefore be calculated directly as Δ absorption per time unit. […] of the MetAP-2 activity (mol of Met/time unit) is possible with the aid of the dianisidineox extinction coefficient.
The change in extinction per time unit is depicted graphically and a slope calculation is carried out in the visually linear region of the reaction.

MetAP-2, sequence (P50579 whole entry, species assumed): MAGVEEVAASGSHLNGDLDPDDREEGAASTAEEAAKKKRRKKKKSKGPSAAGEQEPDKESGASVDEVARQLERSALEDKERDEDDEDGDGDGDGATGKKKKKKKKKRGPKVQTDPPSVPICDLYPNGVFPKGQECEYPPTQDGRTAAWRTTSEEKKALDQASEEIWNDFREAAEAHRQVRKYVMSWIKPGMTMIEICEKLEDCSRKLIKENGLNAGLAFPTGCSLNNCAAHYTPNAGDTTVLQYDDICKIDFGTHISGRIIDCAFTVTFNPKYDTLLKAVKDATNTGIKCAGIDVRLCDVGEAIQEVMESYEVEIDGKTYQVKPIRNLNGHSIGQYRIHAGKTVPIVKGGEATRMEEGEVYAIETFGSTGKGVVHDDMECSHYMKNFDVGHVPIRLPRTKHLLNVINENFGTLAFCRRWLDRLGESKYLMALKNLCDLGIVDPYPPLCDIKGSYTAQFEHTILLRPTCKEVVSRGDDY

Compound | IC50 [nM]
2-[1-(1H-imidazol-4-yl)meth-(Z)-ylidene]-5-[(R)-1-(9H-purin-6-yl)pyrrolidin-2-ylmethoxy]-3,4-dihydro-2H-naphthalen-1-one [A15] | 10 to 1000
Clc1ccccc1CCC1CCCN1c1ncnc2[nH]cnc12 (racemic) [A5, 6-{2-[2-(2-chlorophenyl)ethyl]pyrrolidin-1-yl}-9H-purine] | 1000 to 10000
c1ccc2c(OC[C@H]3CCCN3c3ncnc4[nH]cnc34)ccc(CN3CCOCC3)c2c1 [A3, 6-[(R)-2-(4-morpholin-4-ylmethylnaphthalen-1-yloxymethyl)pyrrolidin-1-yl]-9H-purine] | 10 to 1000
FC1(F)C[C@H](COc2cccc3ccccc23)N(c2ncnc3[nH]cnc23)C1 [A8, 6-[(R)-4,4-difluoro-2-(naphthalen-1-yloxymethyl)pyrrolidin-1-yl]-9H-purine] | 1000 to 10000
Clc1cccc(/C=C/[C@H]2CCCN2c2ncnc3[nH]cnc23)c1 [A11, 6-{(R)-2-[(E)-2-(3-chlorophenyl)vinyl]pyrrolidin-1-yl}-9H-purine] | 1000 to 10000
C(=C\[C@H]1CCCN1c1ncnc2[nH]cnc12)/c1cccc2ccccc12 [A12, 6-[(R)-2((E)-2-naphthalen-1-ylvinyl)pyrrolidin-1-yl]-9H-purine] | 1000 to 10000
O=C(NC1CC1)c1cc(OC[C@H]2CCCN2c2ncnc3[nH]cnc23)c2ccccc2n1 [A14, N-cyclopropyl-4-[(R)-1-(9H-purin-6-yl)pyrrolidin-2-ylmethoxy]quinoline-2-carboxamide hydrochloride] | 1000 to 10000
Cc1nc2c(N3CCC[C@@H]3COc3ccccc3Cl)ncnc2[nH]1 [A16, 6-[(R)-2-(2-Chlorophenoxymethyl)pyrrolidin-1-yl]-8-methyl-9H-purine] | > 10000
CCc1nc2c(N3CCC[C@@H]3COc3ccccc3Cl)ncnc2[nH]1 [A17, 6-[(R)-2-(2-Chlorophenoxymethyl)pyrrolidin-1-yl]-8-ethyl-9H-purine HCl] | > 10000
Brc1nc2c(N3CCC[C@@H]3COc3cccc4ccccc34)ncnc2[nH]1 [A18, 8-Bromo-6-[(R)-2-(naphthalen-1-yloxymethyl)-pyrrolidin-1-yl]-9H-purine] | > 10000
CN(C[C@H]1CCCN1c1ncnc2[nH]cnc12)c1cccc(F)c1 [A21] | > 10000
Clc1ccccc1OC[C@H]1CCCN1c1ncnc2ncccc12 [A22] | > 10000
c1ccc2c(OC[C@H]3CCCN3c3ncnc4ncccc34)cccc2c1 [A23, 4-[(R)-2-(Naphthalen-1-yloxymethyl)pyrrolidin-1-yl]pyrido[2,3-d]pyrimidine] | > 10000
Nn1ccc2c(N3CCC[C@@H]3COc3ccccc3F)ncnc21 [A24, 4-[(R)-2-(2-Fluorophenoxymethyl)pyrrolidin-1-yl]pyrrolo[2,3-d]pyrimidin-7-ylamine] | > 10000
Nn1cnc2c(N3CCC[C@@H]3COc3cccc4ccccc34)ncnc21 [A25, 6-[(R)-2-(Naphthalen-1-yloxymethyl)pyrrolidin-1-yl]purin-9-ylamine] | 1000 to 10000
F[C@@H]1C[C@H](COc2cccc3ccccc23)N(c2ncnc3[nH]cnc23)C1 [A26, 6-[(2R,4R)-4-Fluoro-2-(naphthalen-1-yl-oxymethyl)pyrrolidin-1-yl]-9H-purine] | > 10000
F[C@@H]1C[C@H](COc2ccccc2Cl)N(c2ncnc3[nH]cnc23)C1 [A27, 6-[(2R,4R)-2-(2-Chlorophenoxymethyl)-4-fluoro-pyrrolidin-1-yl]-9H-purine] | > 10000
F[C@H]1C[C@H](COc2cccc3ccccc23)N(c2ncnc3[nH]cnc23)C1 [A28, 6-[(2R,4S)-4-Fluoro-2-(naphthalen-1-yl-oxymethyl)pyrrolidin-1-yl]-9H-purine] | 1000 to 10000
O[C@@H]1C[C@H](COc2cccc3ccccc23)N(c2ncnc3[nH]cnc23)C1 [A30, (3R,5R)-5-(Naphthalen-1-yloxymethyl)-1-(9H-purin-6-yl)pyrrolidin-3-ol] | > 10000
O=c1ccc(-c2cc(F)cc(F)c2)nn1CC1CCCN1c1ncnc2[nH]cnc12 (stereo not shown) [A32, 6-(3,5-Difluorophenyl)-2-[1-(9H-purin-6-yl)-pyrrolidin-2-ylmethyl]-2H-pyridazin-3-one] | > 10000
CC(=O)Nc1nc2ccc(CNC(=O)Nc3cc(C(F)(F)F)ccc3OCC3CCCN3c3ncnc4[nH]cnc34)cc2[nH]1 (stereo not shown) [A33, N-[6-(3-{2-[1-(9H-Purin-6-yl)pyrrolidin-2-yl-methoxy]-5-trifluoromethylphenyl}ureido-methyl)-1H-benzimidazol-2-yl]acetamide] | > 10000
CNC(=O)c1cc(Oc2ccc(CNC(=O)Nc3cc(C(F)(F)F)ccc3OCC3CCCN3c3ncnc4[nH]cnc34)cc2)ccn1 (stereo not shown) [A34, N-Methyl-4-[4-(3-{2-[1-(9H-purin-6-yl)pyrrolidin-2-ylmethoxy]-5-trifluoromethyl-phenyl}ureidomethyl)phenoxy]pyridine-2-carboxamide] | > 10000

Compound | IC50 [nM]
c1ccc2c(c1)oc1cc(OC[C@H]3CCCN3c3ncnc4[nH]cnc34)ccc12 [A37] | 1000 to 10000
c1ccc2c(c1)[nH]c1cccc(OC[C@H]3CCCN3c3ncnc4[nH]cnc34)c12 [A38, 4-[(R)-1-(9H-Purin-6-yl)pyrrolidin-2-ylmethoxy]-9H-carbazole] | 10 to 1000
CCCCn1c(C)c(C(=O)OCC)c2cc(OC[C@H]3CCCN3c3ncnc4[nH]cnc34)ccc21 [A39, Ethyl 1-butyl-2-methyl-5-[(R)-1-(9H-purin-6-yl)-pyrrolidin-2-ylmethoxy]-1H-indole-3-carboxylate] | 1000 to 10000
c1cc(OC[C@H]2CCCN2c2ncnc3[nH]cnc23)c2cc[nH]c2c1 [A40, 6-[(R)-2-(1H-lndol-4-yloxymethyl)pyrrolidin-1-yl]-9H-purine] | 1000 to 10000
CC(=O)c1cc2cccc(OC[C@H]3CCCN3c3ncnc4[nH]cnc34)c2o1 [A41, 1-{7-[(R)-1-(9H-Purin-6-yl)pyrrolidin-2-yl-methoxy]benzofuran-2-yl}ethanone] | 10 to 1000
c1cnc2c(OC[C@H]3CCCN3c3ncnc4[nH]cnc34)ccc(CN3CCCCC3)c2c1 [A42, 5-Piperidin-1-ylmethyl-8-[(R)-1-(9H-purin-6-yl)-pyrrolidin-2-ylmethoxy]quinoline formate] | 1000 to 10000
c1cnc2c(OC[C@H]3CCCN3c3ncnc4[nH]cnc34)cccc2c1 [A43, 8-[(R)-1-(9H-Purin-6-yl)pyrrolidin-2-yl-methoxy]quinoline] | 1000 to 10000
COc1cc2c(OC[C@H]3CCCN3c3ncnc4[nH]cnc34)ncnc2cc1OCc1ccccc1 [A45, 7-Benzyloxy-6-methoxy-4-[(R)-1-(9H-purin-6-yl)-pyrrolidin-2-ylmethoxy]quinazoline] | > 10000
NCCOCCOCCNCc1ccc(OC[C@H]2CCCN2c2ncnc3[nH]cnc23)c2ccccc12 [A47, 2-{2-[2-({4-[(R)-1-(9H-Purin-6-yl)pyrrolidin-2-yl-methoxy]naphthalen-1-ylmethyl}-amino)ethoxy]ethoxy}ethylamine] | 1000 to 10000
CNC(=O)c1cc(OC[C@H]2CCCN2c2ncnc3[nH]cnc23)c2ccccc2n1 [A48, N-Methyl-4-[(R)-1-(9H-purin-6-yl)pyrrolidin-2-yl-methoxy]quinoline-2-carboxamide formate] | 10 to 1000
Cc1ccc2cccc(OC[C@H]3CCCN3c3ncnc4[nH]cnc34)c2n1 [A49, 2-Methyl-8-[(R)-1-(9H-purin-6-yl)pyrrolidin-2-yl-methoxy]quinoline] | 1000 to 10000
CCNC(=O)c1cc(OC[C@H]2CCCN2c2ncnc3[nH]cnc23)c2ccccc2n1 [A50, N-Ethyl-4-[(R)-1-(9H-purin-6-yl)pyrrolidin-2-yl-methoxy]quinoline-2-carboxamide formate] | 10 to 1000
O=C1CCCc2c(OC[C@H]3CCCN3c3ncnc4[nH]cnc34)cccc21 [A51] | 10 to 1000
O=C(O)/C=C1/CCc2c(OC[C@H]3CCCN3c3ncnc4[nH]cnc34)cccc2C1=O [A53, [1-Oxo-5-[(R)-1-(9H-purin-6-yl)pyrrolidin-2-yl-methoxy]-3,4-dihydro-1H-naphthalen-(2Z)-ylidene]acetic acid] | 10 to 1000
c1cc2c(c(OC[C@H]3CCCN3c3ncnc4[nH]cnc34)c1)CCCC2 [A55, 6-[(R)-2-(5,6,7,8-Tetrahydronaphthalen-1-yl-oxymethyl)pyrrolidin-1-yl]-9H-purine] | 10 to 1000
c1cc(OC[C@H]2CCCN2c2ncnc3[nH]cnc23)c2nccc(CN3CCOCC3)c2c1 [A56, 4-Morpholin-4-ylmethyl-8-[(R)-1-(9H-purin-6-yl)-pyrrolidin-2-ylmethoxy]quinoline] | 1000 to 10000
Clc1ncc(OC[C@H]2CCCN2c2ncnc3[nH]cnc23)c2ccccc12 [A57, 1 -Chloro-4-[(R)-1-(9H-purin-6-yl)pyrrolidin-2-yl-methoxy]isoquinoline] | 10 to 1000
COCCOc1cccc2c(OC[C@H]3CCCN3c3ncnc4[nH]cnc34)cccc12 [A58, 6-{(R)-2-[5-(2-Methoxyethoxy)naphthalen-1-yl-oxymethyl]pyrrolidin-1-yl}-9H-purine] | 10 to 1000
O=c1c2ccccc2ccn1C[C@H]1CCCN1c1ncnc2[nH]cnc12 [A59, 2-[(R)-1-(9H-Purin-6-yl)pyrrolidin-2-ylmethyl]-2H-isoquinolin-1-one] | > 10000
c1ccc2c(OC[C@H]3CCCN3c3ncnc4[nH]cnc34)ccc(CNCCN3CCOCC3)c2c1 [A60, (2-Morpholin-4-ylethyl)-{4-[(R)-1-(9H-purin-6-yl)-pyrrolidin-2-ylmethoxy]naphthalen-1-yl-methyl}amine] | 10 to 1000
c1ccc2c(OC[C@H]3CCCN3c3ncnc4[nH]cnc34)c(CN3CCCCC3)ccc2c1 [A61, 6-[(R)-2-(2-Piperidin-1-ylmethylnaphthalen-1-yloxymethyl)pyrroiidin-1-yl]-9H-purine] | > 10000
